The first assay deals with His-Tagged hOGA (human O-GlcNAcase) (Homo sapiens (Human), UniProt O60502). The assay is described as follows: Human O-GlcNAcase enzyme inhibition assay (Example B01). In kind it is biochemical. The following applies: OGA IC50 (M), OGA enzyme inhibition assay; activity range classes defined in μM.
His-Tagged hOGA (human O-GlcNAcase), sequence (O60502 whole entry): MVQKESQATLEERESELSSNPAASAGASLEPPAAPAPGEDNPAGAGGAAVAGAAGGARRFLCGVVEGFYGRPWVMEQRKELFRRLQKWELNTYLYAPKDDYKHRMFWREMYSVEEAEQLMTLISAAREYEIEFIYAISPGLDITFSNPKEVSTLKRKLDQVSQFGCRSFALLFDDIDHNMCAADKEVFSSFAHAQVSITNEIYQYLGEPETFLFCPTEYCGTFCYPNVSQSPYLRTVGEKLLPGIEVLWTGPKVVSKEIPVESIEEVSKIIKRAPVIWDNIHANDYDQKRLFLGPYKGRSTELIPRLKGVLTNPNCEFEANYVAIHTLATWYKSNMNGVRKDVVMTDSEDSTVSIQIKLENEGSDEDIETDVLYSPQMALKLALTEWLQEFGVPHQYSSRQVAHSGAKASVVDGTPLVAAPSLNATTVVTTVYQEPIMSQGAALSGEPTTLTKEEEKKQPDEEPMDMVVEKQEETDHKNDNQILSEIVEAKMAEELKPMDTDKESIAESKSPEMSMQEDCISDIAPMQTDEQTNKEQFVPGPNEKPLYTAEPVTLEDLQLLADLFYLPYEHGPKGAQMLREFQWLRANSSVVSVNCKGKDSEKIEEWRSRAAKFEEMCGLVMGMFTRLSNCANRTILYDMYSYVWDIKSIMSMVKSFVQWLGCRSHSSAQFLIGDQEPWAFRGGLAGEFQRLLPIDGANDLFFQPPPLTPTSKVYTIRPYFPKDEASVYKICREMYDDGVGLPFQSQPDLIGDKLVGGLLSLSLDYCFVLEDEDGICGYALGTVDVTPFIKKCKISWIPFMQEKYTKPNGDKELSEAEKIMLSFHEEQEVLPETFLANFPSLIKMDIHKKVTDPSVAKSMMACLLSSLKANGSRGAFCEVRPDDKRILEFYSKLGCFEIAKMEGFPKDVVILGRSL
The compound `CC(c1ccc2cccnc2c1)N1CCN(c2ncccn2)CC1` (racemic) [Example 91, 7-(1-(4-(pyrimidin-2-yl)piperazin-1-yl)ethyl)quinoline] returned an IC50 of 5e-08 to 2e-07 M.

The assay is the same for the next values; noted with them: OGA enzyme inhibition assay; activity range classes defined in μM; read-out: OGA IC50.
For `C[C@@H](c1ccc2c(c1)OCO2)N1CCN(c2ncc(C(=O)N(C)C)cn2)CC1` [Example 137, (S)-2-(4-(1-(benzo[d][1,3]dioxol-5-yl)ethyl)piperazin-1-yl)-N,N-dimethylpyrimidine-5-carboxamide], the half-maximal inhibitory concentration (IC50) was under 5e-08 M.

Take `CC(c1ccc2c(c1)OCO2)N1CCN(c2nnc(NCc3ccc(Cl)cc3)s2)CC1` (racemic) [Example 111, 5-(4-(1-(benzo[d][1,3]dioxol-5-yl)ethyl)piperazin-1-yl)-N-(4-chlorobenzyl)-1,3,4-thiadiazol-2-amine]: the IC50 was 5e-08 to 2e-07 M.

As to `CC(O)c1cnc(N2CCN([C@@H](C)c3ccc4c(c3)OCO4)CC2)nc1` (stereo partly drawn) [Example 168, 1-(2-(4-((S)-1-(benzo[d][1,3]dioxol-5-yl)ethyl)piperazin-1-yl)pyrimidin-5-yl)ethan-1-ol], the IC50 was under 5e-08 M.

As for `CC(=O)Nc1nnc(N2CCN(C(C)c3ccc4cccnc4c3)CC2)s1` (racemic) [Example 115, N-(5-(4-(1-(quinolin-7-yl)ethyl)piperazin-1-yl)-1,3,4-thiadiazol-2-yl)acetamide], the IC50 was in the range of 5e-08 to 2e-07 M.

For `CCOC(=O)c1cnc(N2CCN(C(C)c3ccc4c(c3)OCO4)CC2)s1` (racemic) [Example 27, Ethyl 2-(4-(1-(benzo[d][1,3]dioxol-5-yl)ethyl)piperazin-1-yl)thiazole-5-carboxylate], the IC50 was in the range of 2e-07 to 1e-06 M.

For the compound `CC(c1ccc2c(c1)OCO2)N1CCN(c2cnc(I)nc2)CC1` (racemic) [Example 8, -5-(4-(1-(benzo[d][1,3]dioxol-5-yl)ethyl)piperazin-1-yl)-2-iodopyrimidine], the IC50 lay within 5e-08 to 2e-07 M.

In the case of `CC(c1ccc2c(c1)OCO2)N1CCN(c2nc(C(F)(F)F)cs2)CC1` (racemic) [Example 13, 2-(4-(1-(Benzo[d][1,3]dioxol-5-yl)ethyl)piperazin-1-yl)-4-(trifluoromethyl)thiazole], the IC50 fell in the range of 2e-07 to 1e-06 M.

With `CC(=O)Nc1nnc(N2CCN(C(C)c3ccc4c(c3)OCCO4)CC2)s1` (racemic) [Example 97, N-(5-(4-(1-(2,3-Dihydrobenzo[b][1,4]dioxin-6-yl)ethyl)piperazin-1-yl)-1,3,4-thiadiazol-2-yl)acetamide], the IC50 was under 5e-08 M.

As to `CC(=O)c1cnc(N2CCN([C@@H](C)c3ccc4c(c3)OCO4)CC2)nc1` [Example 167, (S)-1-(2-(4-(1-(benzo[d][1,3]dioxol-5-yl)ethyl)piperazin-1-yl)pyrimidin-5-yl)ethan-1-one], the IC50 is under 5e-08 M.

`CNC(=O)c1csc(N2CCN(C(C)c3ccc4c(c3)OCO4)CC2)n1` (racemic) [Example 30, 2-(4-(1-(Benzo[d][1,3]dioxol-5-yl)ethyl)piperazin-1-yl)-N-methylthiazole-4-carboxamide]: the 50% inhibitory concentration (IC50) fell in the range of 5e-08 to 2e-07 M.

Consider `CC(c1ccc2c(c1)OCO2)N1CCN(c2ccccn2)CC1` (racemic) [Example 10, 1-(1-(Benzo[d][1,3]dioxol-5-yl)ethyl)-4-(pyridin-2-yl)piperazine], for which the 50% inhibitory concentration (IC50) fell in the range of 2e-07 to 1e-06 M.

`CC(C)C(=O)Nc1nnc(N2CCN(C(C)c3ccc4c(c3)OCO4)CC2)s1` (racemic) [Example 107, N-(5-(4-(1-(benzo[d][1,3]dioxol-5-yl)ethyl)piperazin-1-yl)-1,3,4-thiadiazol-2-yl)isobutyramide]: the IC50 is under 5e-08 M.

As for `CC(c1ccc2c(c1)OCO2)N1CCN(c2nc(C(=O)N(C)C)cs2)CC1` (racemic) [Example 42, 2-(4-(1-(benzo[d][1,3]dioxol-5-yl)ethyl)piperazin-1-yl)-N,N-dimethylthiazole-4-carboxamide], the IC50 lay within 2e-07 to 1e-06 M.

As for `CC(=O)Nc1cnc(N2CCN(C(C)c3ccc4c(c3)OCCO4)CC2)nc1` (racemic) [Example 96, N-(2-(4-(1-(2,3-Dihydrobenzo[b][1,4]dioxin-6-yl)ethyl)piperazin-1-yl)pyrimidin-5-yl)acetamide], the IC50 is under 5e-08 M.

On to `Cc1ncc(N2CCN(C(C)c3ccc4c(c3)OCO4)CC2)s1` (racemic) [Example 37, 5-(4-(1-(Benzo[d][1,3]dioxol-5-yl)ethyl)piperazin-1-yl)-2-methylthiazole], for which the IC50 is under 5e-08 M.

As for `C[C@@H](c1ccc2c(c1)OCO2)N1CCN(c2ccc(C(=O)N(C)C)cn2)CC1` [Example 187, (S)-6-(4-(1-(benzo[d][1,3]dioxol-5-yl)ethyl)piperazin-1-yl)-N,N-dimethylnicotinamide], the IC50 was under 5e-08 M.

For `CCOC(=O)c1csc(N2CCN(C(C)c3ccc4c(c3)OCO4)CC2)n1` (racemic) [Example 17, Ethyl 2-(4-(1-(benzo[d][1,3]dioxol-5-yl)ethyl)piperazin-1-yl)thiazole-4-carboxylate], the IC50 fell in the range of 2e-07 to 1e-06 M.

For the compound `C[C@@H](c1ccc2c(c1)OCO2)N1CCN(c2nc3ccccc3s2)CC1` [Example 136, (S)-2-(4-(1-(benzo[d][1,3]dioxol-5-yl)ethyl)piperazin-1-yl)benzo[d]thiazole], the IC50 was in the range of 2e-07 to 1e-06 M.

Regarding `CC(c1ccc2c(c1)OCO2)N1CCN(c2ccc(Cl)cn2)CC1` (racemic) [Example 20], the IC50 was in the range of 2e-07 to 1e-06 M.

In the case of `CC(c1ccc2c(c1)OCO2)N1CCN(c2nc(-c3ccccc3)cs2)CC1` (racemic) [Example 5, 2-(4-(1-(Benzo[d][1,3]dioxol-5-yl)ethyl)piperazin-1-yl)-4-phenylthiazole], the IC50 fell in the range of 2e-07 to 1e-06 M.

On to `C[C@@H](c1ccc2c(c1)OCO2)N1CCN(c2ncc(C(C)(C)O)cn2)CC1` [Example 176, (S)-2-(2-(4-(1-(benzo[d][1,3]dioxol-5-yl)ethyl)piperazin-1-yl)pyrimidin-5-yl)propan-2-ol], for which the IC50 is under 5e-08 M.

As for `CCC(=O)Nc1nnc(N2CCN(C(C)c3ccc4c(c3)OCO4)CC2)s1` (racemic) [Example 105, N-(5-(4-(1-(benzo[d][1,3]dioxol-5-yl)ethyl)piperazin-1-yl)-1,3,4-thiadiazol-2-yl)propionamide], the IC50 is under 5e-08 M.

For the compound `CCOC(=O)c1cnc(N2CCN(C(C)c3ccc4c(c3)OCO4)CC2)nc1` (racemic) [Example 51, Ethyl 2-(4-(1-(benzo[d][1,3]dioxol-5-yl)ethyl)piperazin-1-yl)pyrimidine-5-carboxylate], the IC50 was 5e-08 to 2e-07 M.

Take `COc1cccc(N2CCN(C(C)c3ccc4c(c3)OCCO4)CC2)n1` (racemic) [Example 200]: the concentration for half-maximal inhibition (IC50) lay in the range of 5e-08 to 2e-07 M.

For the compound `C[C@@H](c1ccc2c(c1)OCO2)N1CCN(c2ncc(F)cn2)CC1` [Example 173, (S)-2-(4-(1-(benzo[d][1,3]dioxol-5-yl)ethyl)piperazin-1-yl)-5-fluoropyrimidine], the concentration for half-maximal inhibition (IC50) is under 5e-08 M.

Turning to `CC(c1ccc2c(c1)OCO2)N1CCN(c2nc(C(N)=O)cs2)CC1` (racemic) [Example 35, 2-(4-(1-(Benzo[d][1,3]dioxol-5-yl)ethyl)piperazin-1-yl)thiazole-4-carboxamide], the IC50 was 5e-08 to 2e-07 M.

For the compound `Cc1cnc2cc(C(C)N3CCN(c4ncccn4)CC3)ccc2c1` (racemic) [Example 201, 3-Methyl-7-(1-(4-(pyrimidin-2-yl)piperazin-1-yl)ethyl)quinoline], the IC50 was 1e-06 to 1e-05 M.

For the compound `CC(=O)Nc1nnc(N2CCN(C(C)c3ccc4scnc4c3)CC2)s1` (single isomer, unassigned) [Example 133, (S)-N-(5-(4-(1-(benzo[d]thiazol-5-yl)ethyl)piperazin-1-yl)-1,3,4-thiadiazol-2-yl)acetamide or ((R)-N-(5-(4-(1-(benzo[d]thiazol-5-yl)ethyl)piperazin-1-yl)-1,3,4-thiadiazol-2-yl)acetamide], the half-maximal inhibitory concentration (IC50) was under 5e-08 M.

With `CC(=O)Nc1nnc(N2CCN(C(C)c3ccc4scnc4c3)CC2)s1` (racemic) [Example 114, N-(5-(4-(1-(benzo[d]thiazol-5-yl)ethyl)piperazin-1-yl)-1,3,4-thiadiazol-2-yl)acetamide], the IC50 is under 5e-08 M.

Regarding `COc1ccc(-c2csc(N3CCN(C(C)c4ccc5c(c4)OCO5)CC3)n2)cc1` (racemic) [Example 6, 2-(4-(1-(Benzo[d][1,3]dioxol-5-yl)ethyl)piperazin-1-yl)-4-(4-methoxyphenyl)thiazole], the IC50 was in the range of 1e-06 to 1e-05 M.

`C[C@@H](c1ccc2c(c1)OCO2)N1CCN(c2ncc(C3(O)CCCC3)cn2)CC1` [Example 181, (S)-1-(2-(4-(1-(benzo[d][1,3]dioxol-5-yl)ethyl)piperazin-1-yl)pyrimidin-5-yl)cyclopentan-1-ol]: the 50% inhibitory concentration (IC50) is under 5e-08 M.

Still in this assay, the particulars now being: measured according to Example B01.
On to `C[C@@H](c1ccc2c(c1)OCO2)N1CCN(c2ncc(C(=O)N(C)C)cn2)CC1` [Example 137, (S)-2-(4-(1-(benzo[d][1,3]dioxol-5-yl)ethyl)piperazin-1-yl)-N,N-dimethylpyrimidine-5-carboxamide], for which the “OGA inhibitor activity (in words)” value is reported as “very potent OGA inhibitors”.

In the case of `CC(O)c1cnc(N2CCN([C@@H](C)c3ccc4c(c3)OCO4)CC2)nc1` (stereo partly drawn) [Example 168, 1-(2-(4-((S)-1-(benzo[d][1,3]dioxol-5-yl)ethyl)piperazin-1-yl)pyrimidin-5-yl)ethan-1-ol], the “OGA inhibitor activity (in words)” value was “very potent OGA inhibitors”.

Take `CC(c1ccc(Cl)cc1)N1CCN(c2ccc3ccccc3n2)CC1` (stereo not shown) [compound 5 of WO 99/21850, reference compound]: the “OGA inhibitor activity (in words)” value is “not active as OGA inhibitors”.

For `Cc1cc2ccc(C(C)N3CCN(c4ncccc4C(F)(F)F)CC3)cc2[nH]c1=O` (stereo not shown) [compound of example 56 of WO 99/21850, reference compound], the “OGA inhibitor activity (in words)” value is “not useful as OGA inhibitors”.

Regarding `Cc1ncc(N2CCN(C(C)c3ccc4c(c3)OCO4)CC2)s1` (racemic) [Example 37, 5-(4-(1-(Benzo[d][1,3]dioxol-5-yl)ethyl)piperazin-1-yl)-2-methylthiazole], the “OGA inhibitor activity (in words)” value is “very potent OGA inhibitors”.

For `COc1ccc(C(C)N2CCN(c3ccc(Br)c(OC)n3)CC2)cc1OC` (stereo not shown) [compound of example 72 of WO 2005/110982, reference compound], the “OGA inhibitor activity (in words)” value is on record as “not active as OGA inhibitors”.

`C[C@@H](c1ccc2c(c1)OCO2)N1CCN(c2ncc(C(C)(C)O)cn2)CC1` [Example 176, (S)-2-(2-(4-(1-(benzo[d][1,3]dioxol-5-yl)ethyl)piperazin-1-yl)pyrimidin-5-yl)propan-2-ol]: the “OGA inhibitor activity (in words)” value is given as “very potent OGA inhibitors”.

As for `C[C@@H](c1ccc2c(c1)OCO2)N1CCN(c2ncc(F)cn2)CC1` [Example 173, (S)-2-(4-(1-(benzo[d][1,3]dioxol-5-yl)ethyl)piperazin-1-yl)-5-fluoropyrimidine], the “OGA inhibitor activity (in words)” value is given as “very potent OGA inhibitors”.

With `CC(c1ccc2c(c1)OCCO2)N1CCN(c2ncc(C(=O)N3CCN(C)CC3)s2)CC1` (single isomer, unassigned) [Example 75], the “OGA inhibitor activity (in words)” value is “very potent OGA inhibitors”.

In the case of `CC(=O)Nc1nnc(N2CCN(C(C)c3ccc4scnc4c3)CC2)s1` (racemic) [Example 114, N-(5-(4-(1-(benzo[d]thiazol-5-yl)ethyl)piperazin-1-yl)-1,3,4-thiadiazol-2-yl)acetamide], the “OGA inhibitor activity (in words)” value is “very potent OGA inhibitors”.

Take `C[C@@H](c1ccc2c(c1)OCO2)N1CCN(c2ncc(C3(O)CCCC3)cn2)CC1` [Example 181, (S)-1-(2-(4-(1-(benzo[d][1,3]dioxol-5-yl)ethyl)piperazin-1-yl)pyrimidin-5-yl)cyclopentan-1-ol]: the “OGA inhibitor activity (in words)” value was “very potent OGA inhibitors”.

As a reminder, the IC50 is the midpoint of a concentration-inhibition curve.

The values are drawn from US10336775B2 (Asceneuron SA, priority 2014, dated 2019).
